Test results taken from ChEMBL document CHEMBL5620374, “Synthesis and bioevaluation of novel stilbene-based derivatives as tubulin/HDAC dual-target inhibitors with potent antitumor activities in vitro and in vivo” (Eur J Med Chem, 2023).
Calls of active or inactive are those of the source. No cut-off for these calls is given here.

Key:
[1] = Antiproliferative activity against human HFL1 cells incubated for 72 hrs by MTT assay; type: toxicity, cell-based
[2] = target: T1, Protein deacetylase HDAC6 (Homo sapiens, UniProt Q9UBN7); assay: Inhibition of HDAC6 derived from human HeLa cell extract using Ac-Leu-Gly-Lys (Ac)-AMC as substrate by fluorescence based assay; type: cell-free
T1 sequence (Q9UBN7 whole entry): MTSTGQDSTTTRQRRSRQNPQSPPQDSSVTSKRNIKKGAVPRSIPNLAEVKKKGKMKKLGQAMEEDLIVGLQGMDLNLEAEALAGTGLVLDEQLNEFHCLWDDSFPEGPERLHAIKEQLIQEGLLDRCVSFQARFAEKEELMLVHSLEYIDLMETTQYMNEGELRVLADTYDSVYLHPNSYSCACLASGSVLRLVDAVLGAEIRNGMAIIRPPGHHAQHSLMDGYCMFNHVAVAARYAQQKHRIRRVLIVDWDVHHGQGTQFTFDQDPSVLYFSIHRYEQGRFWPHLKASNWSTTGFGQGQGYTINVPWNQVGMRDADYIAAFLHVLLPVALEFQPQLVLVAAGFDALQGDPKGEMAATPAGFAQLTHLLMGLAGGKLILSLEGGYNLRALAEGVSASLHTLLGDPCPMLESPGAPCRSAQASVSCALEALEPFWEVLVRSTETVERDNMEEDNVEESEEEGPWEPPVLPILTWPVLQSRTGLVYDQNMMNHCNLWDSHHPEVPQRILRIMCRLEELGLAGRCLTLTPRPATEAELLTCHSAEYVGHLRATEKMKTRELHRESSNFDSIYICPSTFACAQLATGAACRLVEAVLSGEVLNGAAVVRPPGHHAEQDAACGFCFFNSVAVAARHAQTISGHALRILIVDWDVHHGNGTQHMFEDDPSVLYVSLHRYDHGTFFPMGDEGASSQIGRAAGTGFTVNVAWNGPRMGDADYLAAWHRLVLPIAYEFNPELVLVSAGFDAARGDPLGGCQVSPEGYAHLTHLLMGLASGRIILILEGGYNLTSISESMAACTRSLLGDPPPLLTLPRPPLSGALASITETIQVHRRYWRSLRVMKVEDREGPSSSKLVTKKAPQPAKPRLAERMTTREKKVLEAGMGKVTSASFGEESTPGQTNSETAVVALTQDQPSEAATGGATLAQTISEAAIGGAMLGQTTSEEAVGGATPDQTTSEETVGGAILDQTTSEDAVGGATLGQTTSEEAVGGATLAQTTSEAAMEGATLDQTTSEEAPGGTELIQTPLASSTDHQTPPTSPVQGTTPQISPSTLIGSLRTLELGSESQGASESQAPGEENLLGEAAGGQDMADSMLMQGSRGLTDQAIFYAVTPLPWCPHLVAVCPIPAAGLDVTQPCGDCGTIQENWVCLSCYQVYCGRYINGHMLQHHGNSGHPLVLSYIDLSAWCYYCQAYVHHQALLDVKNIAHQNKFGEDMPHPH

[3] = target: T2, Protein deacetylase HDAC6 (Homo sapiens) (UniProt Q9UBN7); assay: Inhibition of HDAC6 in human K562 cells assessed as increase in Acetyl-alpha-tubulin level at 0.01 to 1 uM incubated for 24 hrs by Western blot analysis; type: cell-based; conditions: dose 0.01-1 µM
T2 sequence (whole entry): T1 sequence (Q9UBN7 whole entry)

Histone deacetylase 2 = Histone deacetylase 2 (Homo sapiens, UniProt Q92769); assay: Inhibition of HDAC2 in human K562 cells assessed as increase in Acetyl-histone H3 level at 0.01 to 1 uM incubated for 24 hrs by Western blot analysis; type: cell-based; conditions: dose 0.01-1 µM
K562 [4] = assay: Induction of cell cycle arrest at S phase in human K562 cells at 4 nM incubated for 48 hrs by PI staining based flow cytometry (reference value: 22.56 +/- 0.47 %); type: functional
K562 [5] = assay: Induction of cell cycle arrest at G2 phase in human K562 cells at 8 nM incubated for 48 hrs by PI staining based flow cytometry (Rvb =15.36 +/- 0.46 %); type: functional
K562 [6] = assay: Effect on cell cycle in human K562 cells assessed as decrease in Cdc2 level incubated for 24 hrs by Western blot analysis; type: functional, cell-based; conditions: dose 2-8 nM
K562 [7] = assay: Induction of apoptosis in human K562 cells assessed as viable cells at 2 nM incubated for 48 hrs by Annexin V/PI staining based flow cytometry (reference value: 92.52 +/- 0.34 %); type: functional; conditions: read-out: Activity
K562 [8] = assay: Induction of apoptosis in human K562 cells assessed as early apoptotic cells at 2 nM incubated for 48 hrs by Annexin V/PI staining based flow cytometry (reference value: 1.55 +/- 0.21 %); type: functional
K562 [9] = assay: Induction of apoptosis in human K562 cells assessed as early apoptotic cells at 4 nM incubated for 48 hrs by Annexin V/PI staining based flow cytometry (reference value: 1.55 +/- 0.21 %); type: functional
K562 [10] = assay: Induction of apoptosis in human K562 cells assessed as viable cells at 8 nM incubated for 48 hrs by Annexin V/PI staining based flow cytometry (reference value: 92.52 +/- 0.34 %); type: functional; conditions: read-out: Activity
K562 [11] = assay: Induction of apoptosis in human K562 cells assessed as necrotic cells at 8 nM incubated for 48 hrs by Annexin V/PI staining based flow cytometry (reference value: 2.56 +/- 0.22 %); type: functional
K562 [12] = assay: Inhibition of mitochondrial membrane potential in human K562 cells assessed as green fluorescence intensity at 2 nM incubated for 48 hrs by JC-1 staining based flow cytometry (reference value: 6.63 +/- 0.27 %); type: functional
K562 [13] = assay: Inhibition of mitochondrial membrane potential in human K562 cells assessed as red fluorescence intensity at 4 nM incubated for 48 hrs by JC-1 staining based flow cytometry (reference value: 93.36 +/- 0.21 %); type: functional
MDA-MB-231 [14] = assay: Inhibition of cell migration in human MDA-MB-231 cells incubated for 48 hrs by crystal violet staining based transwell assay; type: functional; conditions: dose 2-8 nM
MDA-MB-231 [15] = assay: Inhibition of cell […] in human MDA-MB-231 cells incubated for 24 hrs by wound healing assay; type: functional, cell-based; conditions: dose 2-8 nM
H22 [16] = assay: Antiproliferative activity against mouse H22 cells incubated for 72 hrs by MTT assay; type: functional, cell-based; conditions: H22, 72 h
H22 [17] = assay: Antitumor activity against mouse H22 cells allografted in ICR mouse assessed as tumor growth inhibition at 20 mg/kg, iv qd for 17 days consecutively relative to control; type: functional; conditions: time 17 day, read-out: TGI
H22 [18] = assay: Antitumor activity against mouse H22 cells allografted in ICR mouse assessed as tumor growth inhibition at 10 mg/kg, iv qd for 17 days consecutively relative to control; type: functional; conditions: time 17 day, read-out: TGI
[19] = Toxicity in ICR mouse allografted with mouse H22 cells assessed as body weight reduction at 10 to 20 mg/kg, iv qd for 17 days consecutively; type: organism-based; conditions: in vivo, dose 10-20 mg/kg, time 17 day
[20] = Toxicity in ICR mouse allografted with mouse H22 cells assessed as toxic sign in kidney at 10 to 20 mg/kg, iv qd for 17 days consecutively by H and E staining based analysis; type: organism-based; conditions: in vivo, dose 10-20 mg/kg, time 17 day
H22 [21] = assay: Antitumor activity against mouse H22 cells allografted in ICR mouse assessed as decrease in tumor microvessel density at 20 mg/kg, iv qd for 17 days consecutively by IHC analysis; type: functional, organism-based; conditions: time 17.0 day

Sequence of Histone deacetylase 2 (Q92769 whole entry): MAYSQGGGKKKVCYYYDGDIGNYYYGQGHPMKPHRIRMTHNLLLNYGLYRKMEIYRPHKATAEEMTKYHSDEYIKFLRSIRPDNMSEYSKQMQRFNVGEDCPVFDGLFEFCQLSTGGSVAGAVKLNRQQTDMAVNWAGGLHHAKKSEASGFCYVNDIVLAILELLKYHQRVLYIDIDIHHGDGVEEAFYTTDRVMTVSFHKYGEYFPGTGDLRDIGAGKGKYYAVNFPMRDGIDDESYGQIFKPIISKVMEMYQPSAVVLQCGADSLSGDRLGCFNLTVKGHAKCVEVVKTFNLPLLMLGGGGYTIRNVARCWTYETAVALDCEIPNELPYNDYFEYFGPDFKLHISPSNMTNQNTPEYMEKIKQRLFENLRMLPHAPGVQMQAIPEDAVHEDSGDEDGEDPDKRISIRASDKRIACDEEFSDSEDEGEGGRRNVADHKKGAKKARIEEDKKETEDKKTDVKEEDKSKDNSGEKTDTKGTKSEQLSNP

With `C=C(c1ccc(OC)c(OC(F)C(=O)NO)c1)c1cc(C)nc2ccccc12` (configuration not stated) the IC50 at 72 h [1] was 230 nM, the IC50 [2] was 459 nM and the inhibition [3] was “Active”. For the same compound, the inhibition (Histone deacetylase 2) was “Active”, the Activity (K562 [4]) was 26.6% and the Activity (K562 [5]) was 27.87%. For the same compound, the Activity (K562 [6]) was “Dose-Dependent Effect”, the viability at 0.002 µM (K562 [7]) was 81.2% and the Activity (K562 [8]) was 14.52%. It also gave an Activity (K562 [9]) of 24.51%, a viability at 0.008 µM (K562 [10]) of 52.6% and an Activity (K562 [11]) of 3.7%. The Flu intensity (K562 [12]) was 17.63%, the Flu intensity (K562 [13]) was 68.24% and the inhibition (MDA-MB-231 [14]) was “Dose-Dependent Effect”. The inhibition (MDA-MB-231 [15]) was “Dose-Dependent Effect”, the IC50 (H22 [16]) was 8 nM and the inhibition in vivo at 20 mg/kg (H22 [17]) was 73.1%. The inhibition in vivo at 10 mg/kg (H22 [18]) was 48%, the Activity [19] was “Non-Toxic” and the Activity [20] was “Non-Toxic”. The Activity (H22 [21]) was “Active”.
